Experimental data published in PubChem BioAssay (NCI).
Several values for one entry are separate records, joined by “and”; a condition that tells them apart may be missing. Equal values may be shown once.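 Interpolation was linear, between the two tested concentrations surrounding the appropriate level; five concentrations were tested over 48 hours in 96-well plates. The concentration for 50% growth inhibition is given as GI50. TGI marks complete inhibition of growth.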

Legend:
Test in all cases: NCI-60 cell line screen, 48 h
[1] = test system: 786-0 renal
[2] = test system: A498 renal
[3] = test system: ACHN renal
[4] = test system: BT-549 breast
[5] = test system: HOP-92 NSCLC
[6] = test system: K-562 leukemia
[7] = test system: OVCAR-3 ovarian
[8] = test system: RPMI-8226 leukemia
[9] = test system: SF-268 CNS
[10] = test system: SK-OV-3 ovarian

Structure (SMILES) | GI50 [1] | TGI [1] | GI50 [2] | TGI [2] | GI50 [3] | TGI [3] | GI50 [4] | TGI [4] [µM] | GI50 [5] [µM] | TGI [5] [µM] | GI50 [6] [µM] | TGI [6] | GI50 [7] [µM] | TGI [7] | GI50 [8] | TGI [8] [µM] | GI50 [9] | TGI [9] | GI50 [10] [µM] | TGI [10] [µM]
CN(C)C(=O)O[C@H]1CN[C@H](C#Cc2cc3ncnc(Nc4ccc(OCc5cccc(F)c5)c(Cl)c4)c3s2)C1 | 5.8 µM | 15 µM | 4.19 µM | 23.3 µM | 6.27 µM | > 25 µM | 4 µM | 10.2 | 1.77 | 19.4 | > 17.1 | > 25 µM | 4.2 | 16.3 µM | 4.63 µM | 15.2 | 5.41 µM | > 25 µM | 0.102 | > 25
c1c[nH]c(CN2CCOCC2)n1 | – | > 100 µM | – | > 100 µM | – | > 100 µM | – | > 100 | – | > 100 | – | > 100 µM | – | > 100 µM | – | > 100 | – | > 100 µM | – | > 100
O=C(Nc1ccc(Cl)c(Cl)c1)NS(=O)(=O)c1cnccc1Oc1ccc(F)cc1 | 4.51 µM | 70.9 µM | > 100 µM | > 100 µM | 3.22 µM | > 100 µM | 6.84 µM | 40.4 | 2.77 | 8.47 | 3.27 | > 100 µM | 2.79 | 8.11 µM | 2.01 µM | 5.36 | 4.48 µM | > 100 µM | 3.87 | 18.2
Cc1ccc(-c2nc3nc(-c4ccc(F)cc4)nc(N4CCCNCC4)c3o2)cc1 | 1.83 µM | 3.56 µM | 1.68 µM | 3.12 µM | 1.73 µM | 3.1 µM | 1.66 µM | 3.37 | 1.32 | 2.88 | 0.225 | 0.539 µM | 1.55 | 2.96 µM | 1.85 µM | 4.66 | 1.73 µM | 3.44 µM | 1.87 | 3.37
Cc1cc(I)cc(CN(C)CCCN2CCCC2)c1O | 14.4 µM | 30.3 µM | 14.8 µM | 33.6 µM | 23.1 µM | 65.4 µM | 13.9 µM | 31.7 | 15.8 | 59.1 | 14.5 | 33.2 µM | 23.2 | > 88.2 µM | 15.6 µM | 37.5 | 17.2 µM | 49.2 µM | 20.5 | 61.2
O=C1CCCCN1CCCCC#Cc1cccc(C#Cc2cccnc2)c1 | 13 µM | 27.8 µM | 42.8 µM | > 100 µM | 9.64 µM | 21.7 µM | 18.6 µM | 74.7 | 19.2 | > 100 | 14.7 | > 100 µM | 22.6 | 71.4 µM | 4.64 µM | 28.7 | 27 µM | > 100 µM | 16.4 | 32.2
O=S(=O)(CCCl)c1ccc(Cl)cc1 | 6.41 µM | 21.4 µM | 2.26 µM | 9.94 µM | 3.52 µM | 13.1 µM | 3.36 µM | 12.6 | 2.2 | 6.57 | 3.98 | > 100 µM | 2.84 | 10.6 µM | 2.8 µM | 12 | 2.87 µM | 10.8 µM | 11.7 | 98.1
O=c1c(F)cn(Cc2ccccc2CCl)c(=O)n1Cc1ccccc1CCl | 2.09 µM | 4.44 µM | 1.58 µM | 5.97 µM | 1.58 µM | 3.04 µM | 1.41 µM | 2.91 | 2.35 | 6.85 | 1.89 | > 100 µM | 1.54 | 3.07 µM | 0.795 µM | 8.46 | 2.04 µM | 4.81 µM | 5.88 | 15.1
Cn1cc(C2=C(c3cn(C4CCN(Cc5ccccn5)CC4)c4ccccc34)C(=O)NC2=O)c2ccccc21 | 8.43 µM | > 91.1 µM | – | – | 9.36 µM | > 100 µM | 7.56 µM | > 100 | 83.2 | > 100 | 3.87 | > 100 µM | 3.82 | > 100 µM | 3.93 µM | > 100 | > 36.8 µM | > 100 µM | 5.55 | > 100
CCC1=CC2CN(C1)Cc1c([nH]c3ccccc13)[C@@](C(=O)OC)(c1cc3c(cc1OC)N(C)[C@H]1[C@@](O)(C(=O)OC)[C@H](OC(C)=O)[C@]4(CC)C=CCN5CC[C@]31[C@@H]54)C2 (stereo partly drawn) | 0.0514 µM and 0.0773 µM | 16.7 µM and > 100 µM | 0.014 µM and 0.0173 µM | 0.326 µM and 0.151 µM | 0.407 µM and 1.27 µM | 50 µM and > 100 µM | < 0.005 µM and 0.043 µM | – | 1.51 | 97.1 | < 0.005 | 16.6 µM and 15.2 µM | < 0.005 | 0.00611 µM and 0.0135 µM | 0.00931 µM and 0.0415 µM | – | 0.122 µM and 0.145 µM | 50 µM and 91 µM | – | 11.8
O=S(=O)(NCCCNc1nccc(-c2c(-c3ccc(F)cc3)nc3sccn23)n1)c1ccc2ccccc2c1 | 6.19 µM | > 100 µM | 3.01 µM | > 100 µM | 3.42 µM | > 100 µM | 4.34 µM | > 100 | 6.36 | > 100 | – | – | – | – | 4.05 µM | > 100 | 6.46 µM | > 100 µM | > 100 | > 100
O=c1oc2ccc(I)cc2c(=O)n1-c1ccc(Cl)cc1F | 3.14 µM | 10.5 µM | 0.141 µM | 0.7 µM | 1.62 µM | 12.8 µM | 1.03 µM | 3.8 | 0.181 | 0.726 | 0.658 | > 100 µM | 0.974 | 12 µM | 0.758 µM | 6.12 | 1.51 µM | 16.7 µM | – | –
COc1ccc2c(c1)/C(=C/c1cc(OC)c(OC)c(OC)c1)C(=O)N2 | 0.236 µM | > 94.3 µM | 0.146 µM | 0.848 µM | 4.19 µM | > 100 µM | 1.37 µM | > 100 | 1.43 | > 33.9 | < 0.0327 | > 36.3 µM | – | 0.0463 µM | 0.275 µM | 1.18 | 0.419 µM | > 100 µM | 0.26 | 5.23
